Legend:
[1] = molecular target: Glucagon-like peptide 1 receptor (Homo sapiens, UniProt P43220); assay: Agonist activity at N-terminal hemagglutinin-tagged human GLP-1R expressed in CHO cells co-transfected with pcDNA3.0 assessed as increase in intracellular cAMP accumulation incubated for 30 mins by microplate reader analysis; assay type: functional, cell-based
[2] = Cmax in Sprague-Dawley rat at 5 mg/kg, po measured up to 24 hrs by LC-MS/MS analysis; assay type: ADME, organism-based; conditions: in vivo
[3] = Observed apparent oral clearance in Sprague-Dawley rat at 5 mg/kg, po measured up to 24 hrs by LC-MS/MS analysis; assay type: ADME, organism-based; conditions: in vivo
[4] = Half life in Sprague-Dawley rat at 5 mg/kg, po measured up to 24 hrs by LC-MS/MS analysis; assay type: ADME, organism-based; conditions: in vivo
in vivo = conditions: Sprague-Dawley, rat, po, 5 mg/kg
[5] = AUC (0 to infinity) in Sprague-Dawley rat at 5 mg/kg, po measured up to 24 hrs by LC-MS/MS analysis; assay type: ADME, organism-based; conditions: in vivo
[6] = Fraction of the dose absorbed in Sprague-Dawley rat at 5 mg/kg, po measured up to 24 hrs by LC-MS/MS analysis; assay type: ADME, organism-based; conditions: in vivo, read-out: Fabs
hERG (KCNH2) [7] = molecular target: T1, hERG (KCNH2) (Homo sapiens, UniProt Q12809); assay: Inhibition of hERG at 10 uM at -80 mV holding potential by whole-cell patch clamp analysis relative to control; assay type: toxicity
hERG (KCNH2) [8] = molecular target: T1, hERG (KCNH2); assay: Inhibition of hERG at 1 uM at -80 mV holding potential by whole-cell patch clamp analysis relative to control; assay type: toxicity

T1 sequence (Q12809 whole entry): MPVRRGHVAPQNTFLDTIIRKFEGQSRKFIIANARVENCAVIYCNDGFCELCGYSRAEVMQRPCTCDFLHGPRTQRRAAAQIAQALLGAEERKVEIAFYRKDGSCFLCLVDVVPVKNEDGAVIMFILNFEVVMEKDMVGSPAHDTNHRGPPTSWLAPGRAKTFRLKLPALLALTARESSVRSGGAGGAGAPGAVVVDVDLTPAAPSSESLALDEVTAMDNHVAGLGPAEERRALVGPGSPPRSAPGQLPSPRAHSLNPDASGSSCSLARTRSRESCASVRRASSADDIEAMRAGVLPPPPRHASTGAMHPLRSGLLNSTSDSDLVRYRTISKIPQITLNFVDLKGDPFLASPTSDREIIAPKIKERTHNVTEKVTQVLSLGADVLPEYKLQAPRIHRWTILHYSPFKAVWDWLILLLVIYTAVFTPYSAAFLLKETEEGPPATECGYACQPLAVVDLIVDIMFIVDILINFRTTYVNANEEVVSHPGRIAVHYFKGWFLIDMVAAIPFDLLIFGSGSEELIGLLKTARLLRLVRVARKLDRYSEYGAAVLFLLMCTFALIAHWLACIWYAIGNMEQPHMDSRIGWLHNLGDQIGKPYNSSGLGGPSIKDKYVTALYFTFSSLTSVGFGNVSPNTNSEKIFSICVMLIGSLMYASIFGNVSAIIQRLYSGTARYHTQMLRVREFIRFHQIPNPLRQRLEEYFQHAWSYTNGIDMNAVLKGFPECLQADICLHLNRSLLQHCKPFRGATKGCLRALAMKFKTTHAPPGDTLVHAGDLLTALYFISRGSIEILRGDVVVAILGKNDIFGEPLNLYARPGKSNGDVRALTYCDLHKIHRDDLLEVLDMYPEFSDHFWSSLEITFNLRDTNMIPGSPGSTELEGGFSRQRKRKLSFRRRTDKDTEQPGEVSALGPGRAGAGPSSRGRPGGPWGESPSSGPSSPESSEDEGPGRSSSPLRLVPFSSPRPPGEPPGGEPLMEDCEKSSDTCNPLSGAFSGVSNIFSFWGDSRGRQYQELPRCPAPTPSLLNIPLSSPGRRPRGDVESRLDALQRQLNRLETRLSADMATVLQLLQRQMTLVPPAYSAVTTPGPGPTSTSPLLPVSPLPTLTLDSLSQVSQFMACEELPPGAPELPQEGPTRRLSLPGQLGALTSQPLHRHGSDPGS
Chain of Glucagon-like peptide 1 receptor (P43220 whole entry): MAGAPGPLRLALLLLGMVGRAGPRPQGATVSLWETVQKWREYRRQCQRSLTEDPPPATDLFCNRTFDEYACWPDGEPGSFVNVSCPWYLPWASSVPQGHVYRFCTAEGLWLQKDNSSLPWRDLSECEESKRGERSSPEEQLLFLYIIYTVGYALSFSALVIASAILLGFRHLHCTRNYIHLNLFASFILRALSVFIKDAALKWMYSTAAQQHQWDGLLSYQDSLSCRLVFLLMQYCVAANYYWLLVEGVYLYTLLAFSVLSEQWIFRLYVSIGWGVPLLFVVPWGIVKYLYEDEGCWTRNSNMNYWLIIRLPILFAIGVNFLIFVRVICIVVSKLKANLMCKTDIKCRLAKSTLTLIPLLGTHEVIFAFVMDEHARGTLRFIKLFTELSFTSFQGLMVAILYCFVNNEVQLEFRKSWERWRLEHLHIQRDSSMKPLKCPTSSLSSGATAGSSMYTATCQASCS

SMILES | EC50 [1] | further results
O=C(O)c1ccc2nc(CN3CC=C(c4cccc(OCc5ccc(CC(F)(F)F)cc5F)n4)CC3)n(C[C@@H]3CCO3)c2n1 | 0.13 nM | –
COc1cc(C(=O)O)cc2c1nc(CN1CCC(c3cccc(OCc4ccc(C5CC(F)(F)C5)cc4F)n3)CC1)n2C[C@@H]1CCO1 | 0.016 nM | Cmax [2]: 20.2 ng/mL; CL/F [3]: 1490 mL/min/kg; half-life [4]: 1.5 h; Tmax at 24 h (in vivo): 1.67 h; AUC(0-inf) [5]: 61.8 ng·h/mL; Fa at 24 h [6]: 1.99%
CC1(c2ccc(COc3cccc(-c4ccc(Cc5nc6ccc(C(=O)O)nc6n5C[C@@H]5CCO5)c(F)c4)n3)c(F)c2)CC(F)(F)C1 | 2.64 nM | –
O=C(O)c1ccc2nc(CN3CCC(c4cccc(OCc5ccc(CC(F)F)cc5F)n4)CC3)n(C[C@@H]3CCO3)c2c1 | 0.26 nM | –
O=C(O)c1cc2c(nc(CN3CCC(Oc4nccc(Cc5ccc(Cl)cc5)n4)CC3)n2C[C@@H]2CCO2)s1 | 396 nM | –
O=C(O)c1cc2c(nc(CN3CCC(Oc4cccc(Cc5ccc6cnn(CC(F)F)c6c5)n4)CC3)n2C[C@@H]2CCO2)s1 | 14.6 nM | –
C[C@H]1CN(c2cccc(OCc3ccc(CC(F)F)cc3F)n2)CCN1Cc1nc2c(F)cc(C(=O)O)cc2n1C[C@@H]1CCO1 | 0.07 nM | –
N#Cc1ccc(OCc2nccc(OC3CCN(Cc4nc5sc(C(=O)O)cc5n4C[C@@H]4CCO4)CC3)n2)c(F)c1 | 0.32 nM | –
O=C(O)c1ccc2nc(CN3CC=C(c4cccc(OCc5ccc(CC(F)F)cc5F)n4)CC3)n(C[C@@H]3CCO3)c2n1 | 0.13 nM | –
COc1cc(C#N)ccc1OCc1nccc(OC2CCN(Cc3nc4sc(C(=O)O)cc4n3C[C@@H]3CCO3)CC2)n1 | 0.45 nM | –
O=C(O)c1ccc2nc(CN3CCC(c4cccc(OCc5ccc(C6CC(F)(F)C6)cc5F)n4)CC3)n(C[C@@H]3CCO3)c2c1 | 0.088 nM | –
O=C(O)c1cc(F)c2nc(CN3CCC(c4cccc(OCc5ccc(CC(F)F)cc5F)n4)CC3)n(C[C@@H]3CCO3)c2c1 | 0.096 nM | –
CC1(c2ccc(COc3cccc(-c4ccc(Cc5nc6ccc(C(=O)O)cc6n5C[C@@H]5CCO5)c(F)c4)n3)c(F)c2)CC(F)(F)C1 | 3.1 nM | –
O=C(O)c1cc(F)c2nc(CN3CCC(c4cccc(OCc5ccc(C6CC(F)(F)C6)cc5F)n4)CC3)n(C[C@@H]3CCO3)c2c1 | 0.026 nM | inhibition at 10 µM (hERG (KCNH2) [7]): 101%; Cmax [2]: 65.6 ng/mL; CL/F [3]: 375 mL/min/kg; half-life [4]: 2.3 h; Tmax at 24 h (in vivo): 2 h; AUC(0-inf) [5]: 229 ng·h/mL; Fa at 24 h [6]: 6.7%
O=C(O)c1cc(F)c2nc(CN3CC=C(c4cccc(OCc5ccc(CC(F)(F)F)cc5F)n4)CC3)n(C[C@@H]3CCO3)c2c1 | 0.096 nM | –
O=C(O)c1cc(F)c2nc(CN3CCN(c4cccc(OCc5ccc(CC(F)F)cc5F)n4)CC3)n(C[C@@H]3CCO3)c2c1 | 0.086 nM | –
CC1(c2ccc(COc3cccc(C4=CCN(Cc5nc6ccc(C(=O)O)cc6n5C[C@@H]5CCO5)CC4)n3)c(F)c2)CC(F)(F)C1 | 6.1 nM | –
N#Cc1ccc(COc2cccc(OC3CCN(Cc4nc5sc(C(=O)O)cc5n4C[C@@H]4CCO4)CC3)n2)c(F)c1 | 9.83 nM | –
O=C(O)c1cc(F)c2nc(CN3CC=C(c4cccc(OCc5ccc(CC(F)F)cc5F)n4)CC3)n(C[C@@H]3CCO3)c2c1 | 0.015 nM | –
COc1ccc(C(F)(F)F)cc1OCc1nccc(OC2CCN(Cc3nc4sc(C(=O)O)cc4n3C[C@@H]3CCO3)CC2)n1 | 19.4 nM | –
Cn1ncc2ccc(Cc3cccc(OC4CCN(Cc5nc6sc(C(=O)O)cc6n5C[C@@H]5CCO5)CC4)n3)c(F)c21 | 77.1 nM | –
O=C(O)c1cc2c(nc(CN3CCC(Oc4ccnc(COc5ccc(Cl)cc5F)n4)CC3)n2C[C@@H]2CCO2)s1 | 0.2 nM | –
O=C(O)c1cc2c(nc(CN3CCC(Oc4cccc(Cc5ccc(-c6ccn(C(F)F)n6)cc5)n4)CC3)n2C[C@@H]2CCO2)s1 | 16.9 nM | –
CC1(c2ccc(COc3cccc(C4=CCN(Cc5nc6ccc(C(=O)O)nc6n5C[C@@H]5CCO5)CC4)n3)c(F)c2)CC(F)(F)C1 | 2.91 nM | –
Cn1ccc(-c2ccc(Cc3cccc(OC4CCN(Cc5nc6sc(C(=O)O)cc6n5C[C@@H]5CCO5)CC4)n3)cc2)n1 | 661 nM | –
O=C(O)c1cc(F)c2nc(CN3CCC(c4cccc(OCc5ccc(CC(F)(F)F)cc5F)n4)CC3)n(C[C@@H]3CCO3)c2c1 | 0.35 nM | –
Cn1ncc2ccc(Cc3cccc(OC4CCN(Cc5nc6c(F)cc(C(=O)O)cc6n5C[C@@H]5CCO5)CC4)n3)c(F)c21 | 0.96 nM | –

The next lines start with results.

EC50 [1] | SMILES | further results
102 nM | Cn1ncc2ccc(Cc3cccc(OC4CCN(Cc5nc6ccc(C(=O)O)nc6n5C[C@@H]5CCO5)CC4)n3)c(F)c21 | –
2.66 nM | O=C(O)c1cc2c(nc(CN3CCC(Oc4cccc(Cc5ccc(Cl)cc5)n4)CC3)n2C[C@@H]2CCO2)s1 | –
3.62 nM | O=C(O)c1ccc2nc(CN3CCC(Oc4cccc(COc5cc(Cl)c6occc6c5)n4)CC3)n(C[C@@H]3CCO3)c2n1 | –
81 nM | O=C(O)c1cc2c(nc(CN3CCC(Oc4cccc(Cc5ccccc5F)n4)CC3)n2C[C@@H]2CCO2)s1 | –
0.11 nM | O=C(O)c1ccc2nc(CN3CCC(Oc4cccc(Cc5ccc(Cl)c6c5OCC6)n4)CC3)n(C[C@@H]3CCO3)c2c1 | –
1.84 nM | O=C(O)c1cc2c(nc(CN3CCC(Oc4ccnc(Cc5ccc(Cl)c6ccoc56)n4)CC3)n2C[C@@H]2CCO2)s1 | –
3.75 nM | O=C(O)c1cc2c(nc(CN3CCC(Oc4cccc(Cc5ccc(Cl)cc5F)n4)CC3)n2C[C@@H]2CCO2)s1 | –
0.46 nM | N#Cc1ccc(OCc2cccc(OC3CCN(Cc4nc5ccc(C(=O)O)cc5n4C[C@@H]4CCO4)CC3)n2)c(OC(F)(F)F)c1 | –
1.76 nM | O=C(O)c1cc2c(nc(CN3CCC(Oc4cccc(COc5ccc(Cl)cc5F)n4)CC3)n2C[C@@H]2CCO2)s1 | –
0.34 nM | O=C(O)c1ccc2nc(CN3CCC(Oc4ccnc(Cc5ccc(Cl)c6ccoc56)n4)CC3)n(C[C@@H]3CCO3)c2n1 | –
9.53 nM | O=C(O)c1cc2c(nc(CN3CCC(Oc4cccc(OCc5ccc(Cl)cc5)n4)CC3)n2C[C@@H]2CCO2)s1 | –
7.91 nM | N#Cc1ccc(Cc2cccc(OC3CCN(Cc4nc5ccc(C(=O)O)nc5n4C[C@@H]4CCO4)CC3)n2)c2occc12 | –
9.81 nM | N#Cc1ccc(Cc2cccc(OC3CCN(Cc4nc5sc(C(=O)O)cc5n4C[C@@H]4CCO4)CC3)n2)c(F)c1 | –
0.32 nM | O=C(O)c1ccc2nc(CN3CCC(Oc4cccc(COc5ccc6c(Cl)nn(CC(F)F)c6c5F)n4)CC3)n(C[C@@H]3CCO3)c2n1 | –
0.062 nM | O=C(O)c1ccc2nc(CN3CCC(Oc4cccc(COc5ccc(Cl)c6ccoc56)n4)CC3)n(C[C@@H]3CCO3)c2n1 | inhibition at 10 µM (hERG (KCNH2) [7]): 9.8%; inhibition at 1 µM (hERG (KCNH2) [8]): 1%; Cmax [2]: 116 ng/mL; CL/F [3]: 448 mL/min/kg; Tmax at 24 h (in vivo): 0.5 h; AUC(0-inf) [5]: 204 ng·h/mL; Fa at 24 h [6]: 13.4%
55.7 nM | O=C(O)c1ccc2nc(CN3CCC(Oc4cccc(Cc5ccc(C6COC6)cc5)n4)CC3)n(C[C@@H]3CCO3)c2n1 | –
87.7 nM | O=C(O)c1cc2c(nc(CN3CCC(Oc4cccc(Cc5ccccc5)n4)CC3)n2C[C@@H]2CCO2)s1 | –
1.14 nM | N#Cc1ccc(Cc2cccc(OC3CCN(Cc4nc5ccc(C(=O)O)cc5n4C[C@@H]4CCO4)CC3)n2)c(F)c1 | –

EC50 [1] | SMILES | further results
70 nM | O=C(O)c1cc2c(nc(CN3CCC(Oc4cccc(Cc5ccc(Cl)c6ccoc56)n4)CC3)n2C[C@@H]2CCO2)s1 | –
0.21 nM | O=C(O)c1ccc2nc(CN3CCC(Oc4cccc(COc5ccc(Cl)c6cc(F)oc56)n4)CC3)n(C[C@@H]3CCO3)c2c1 | –
5.47 nM | N#Cc1ccc(Cc2cccc(OC3CCN(Cc4nc5sc(C(=O)O)cc5n4C[C@@H]4CCO4)CC3)n2)cc1 | –
3.36 nM | O=C(O)c1ccc2nc(CN3CCC(Oc4cccc(Cc5ccc6cnn(CC(F)F)c6c5F)n4)CC3)n(C[C@@H]3CCO3)c2n1 | –
0.84 nM | O=C(O)c1ccc2nc(CN3CCC(Oc4cccc(COc5ccc6cn[nH]c6c5)n4)CC3)n(C[C@@H]3CCO3)c2n1 | –
0.2 nM | COc1cc2c(Cl)ccc(OCc3cccc(OC4CCN(Cc5nc6ccc(C(=O)O)cc6n5C[C@@H]5CCO5)CC4)n3)c2o1 | –
0.8 nM | Cn1nc(Cl)c2ccc(OCc3cccc(OC4CCN(Cc5nc6ccc(C(=O)O)nc6n5C[C@@H]5CCO5)CC4)n3)c(F)c21 | –
20.4 nM | COc1ccc(Cc2cccc(OC3CCN(Cc4nc5sc(C(=O)O)cc5n4C[C@@H]4CCO4)CC3)n2)cc1 | –
46.8 nM | O=C(O)c1ccc2nc(CN3CCC(Oc4cccc(Cc5ccc6cn[nH]c6c5F)n4)CC3)n(C[C@@H]3CCO3)c2n1 | –
176 nM | O=C(O)c1cc2c(nc(CN3CCC(Oc4cccc(Cc5ccc6cn[nH]c6c5F)n4)CC3)n2C[C@@H]2CCO2)s1 | –
1.74 nM | Cc1nn(C)c2c(F)c(Cc3cccc(OC4CCN(Cc5nc6ccc(C(=O)O)nc6n5C[C@@H]5CCO5)CC4)n3)ccc12 | –
0.52 nM | N#Cc1ccc(OCc2cccc(OC3CCN(Cc4nc5sc(C(=O)O)cc5n4C[C@@H]4CCO4)CC3)n2)c(F)c1 | inhibition at 10 µM (hERG (KCNH2) [7]): 0.9%
96.8 nM | N#Cc1ccc(Cc2cccc(OC3CCN(Cc4nc5sc(C(=O)O)cc5n4C[C@@H]4CCO4)CC3)n2)c2occc12 | –
258 nM | Cn1ncc2ccc(Cc3cccc(OC4CCN(Cc5nc6sc(C(=O)O)cc6n5C[C@@H]5CCO5)CC4)n3)cc21 | –
0.79 nM | O=C(O)c1cc2c(nc(CN3CCC(Oc4ccnc(Cc5ccc(Cl)cc5)n4)CC3)n2C[C@@H]2CCO2)s1 | –
0.35 nM | O=C(O)c1ccc2nc(CN3CCC(Oc4cccc(Cc5ccc(Cl)c6occc56)n4)CC3)n(C[C@@H]3CCO3)c2n1 | –
0.91 nM | O=C(O)c1cc2c(nc(CN3CCC(Oc4cccc(COc5ccc(Cl)cc5)n4)CC3)n2C[C@@H]2CCO2)s1 | –
3.7 nM | O=C(O)c1cc2c(nc(CN3CCC(Oc4ccnc(COc5ccc(Cl)cc5)n4)CC3)n2C[C@@H]2CCO2)s1 | –

From ChEMBL document CHEMBL6109144, “Discovery of New Difluorocyclobutyl Derivatives as Effective Glucagon-Like Peptide-1 Receptor Agonists with Reduced hERG Inhibitory Activities” (J Med Chem, 2025)
